Values quoted from earlier work in patent publication US20260116844A1, “LIPID NANOPARTICLE FORMULATION COMPRISING IONIZED LIPIDS WITH BRANCHED STRUCTURE, AND USE THEREOF” (SurgiNex Co., Ltd., priority 2022, published 2026).

Tested on: blood coagulation factor FVII

Structure (SMILES): CCCCC/C=C\C/C=C\CCCCCCCCC(CCCCCCCC/C=C\C/C=C\CCCCC)OC(=O)CCCN(C)C [Dlin-MC3-DMA]
- ED50 (mouse FVII model, siRNA delivery): 5 µg/kg
- times more effective than existing ionized lipids (mouse, in vivo): approximately 1000 times
